Data from ChEMBL document CHEMBL1129143, “Synthesis and acetylcholinesterase inhibitory activity of fluorinated analogues of huperzine A” (Bioorg Med Chem Lett, 1996).

Target: Acetylcholinesterase (Homo sapiens, UniProt P22303)
Experiment: In vitro inhibitory activity against Acetylcholinesterase (AChE).

Chain of Acetylcholinesterase (P22303 whole entry): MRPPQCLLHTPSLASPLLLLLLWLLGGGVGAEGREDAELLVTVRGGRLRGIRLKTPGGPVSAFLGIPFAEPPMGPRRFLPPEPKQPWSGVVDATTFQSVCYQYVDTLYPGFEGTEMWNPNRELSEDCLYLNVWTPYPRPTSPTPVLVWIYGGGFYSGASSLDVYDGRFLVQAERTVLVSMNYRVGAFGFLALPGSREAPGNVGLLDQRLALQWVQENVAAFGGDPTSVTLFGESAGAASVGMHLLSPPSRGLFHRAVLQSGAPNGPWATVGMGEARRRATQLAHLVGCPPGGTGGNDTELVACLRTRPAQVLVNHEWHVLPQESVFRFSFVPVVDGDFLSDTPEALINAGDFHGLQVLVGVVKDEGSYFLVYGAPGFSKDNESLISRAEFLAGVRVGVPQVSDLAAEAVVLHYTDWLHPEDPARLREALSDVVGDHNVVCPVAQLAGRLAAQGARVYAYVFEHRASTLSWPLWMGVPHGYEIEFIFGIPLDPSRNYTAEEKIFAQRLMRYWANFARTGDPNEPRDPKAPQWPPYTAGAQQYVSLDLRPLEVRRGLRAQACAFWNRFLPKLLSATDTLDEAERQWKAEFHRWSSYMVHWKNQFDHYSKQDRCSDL

Compound	IC50
C/C=C1\C2C=C(C(F)(F)F)CC1(N)c1ccc(=O)[nH]c1C2 (stereo not drawn)	400 nM
NC12CC(C(F)(F)F)=CC(Cc3nc(O)ccc31)/C2=C\C(F)(F)F (stereo not drawn)	3000 nM
CC1=CC2Cc3nc(O)ccc3C(N)(C1)/C2=C/C(F)(F)F (stereo not drawn)	2000 nM
